Results: US8575135B2 (Gilead Sciences, Inc., priority 2011, dated 2013)
Where two headings read alike, the source gives them in different places.

Key:
Test in all cases: microbe, parasite or virus in culture
[1] = test system: NS5A chimeric genotype 1b Con1 replicon with genotype 4a ED43 strain NS5A gene; type: cell-based, HCV; conditions: Hepatitis C virus
[2] = test system: stable HCV 1a RLuc replicon cells (genotype 1a H77 replicon); type: cell-based; conditions: Hepatitis C virus
Protocol: (§1) Evaluation of Cell-Based Anti-HCV Activity:
(§2) Antiviral potency (EC50) was determined using a Renilla luciferase (RLuc)-based HCV replicon reporter assay. […] To perform the assay for genotype 2a (with M31 present in NS5A) or 2b, NS5A chimeric genotype 2a JFH-1 replicons that encodes a RLuc-Neo reporter and either genotype 2a J6 strain NS5A gene or genotype 2b MD2b-1 strain NS5A gene (both with M31 present) respectively, were either transiently transfected (t) into Huh-Lunet cells or were established as stably replicating replicon cells (s) is provided. Either cells were dispensed into 384-well plates for EC50 assays. To perform the assay for genotype 3 and 4, NS5A chimeric genotype 1b Con1 replicons that encodes a Pi-RLuc reporter and either genotype 3a S52 strain NS5A gene or genotype 4a ED43 strain NS5A gene respectively, were transiently transfected (t) into Huh-Lunet cells, which were subsequently dispensed into 384-well plates. Compounds were dissolved in DMSO at a concentration of 10 mM and diluted in DMSO either manually or using an automated pipeting instrument. Serially 3-fold diluted compounds were either manually mixed with cell culture media and added to the seeded cells or directly added to the cells using an automated instrument. […] 72 hours later, cells were lysed and Renilla luciferase activity quantified as recommended by the manufacturer (Promega-Madison, Wis.). Non-linear regression was performed to calculate EC50 values.

[3] = test system: NS5A chimeric genotype 2a JFH-1 replicon with genotype 2a J6 strain NS5A gene (M31 present); type: cell-based, HCV; conditions: Hepatitis C virus
Protocol: as §1, §2

[4] = test system: NS5A chimeric genotype 2a JFH-1 replicon with genotype 2b MD2b-1 strain NS5A gene (M31 present); type: cell-based, HCV; conditions: Hepatitis C virus
Protocol: as §1, §2

[5] = test system: stable HCV 2a JFH-1 Rluc replicon cells (L31 present in NS5A); type: cell-based; conditions: Hepatitis C virus
[6] = test system: NS5A chimeric genotype 1b Con1 replicon with genotype 3a S52 strain NS5A gene; type: cell-based, HCV; conditions: Hepatitis C virus, read-out: 3a (nM)
Protocol: as §1, §2

SMILES | EC50 ([1]; read-out: 4a) | EC50 ([1]; read-out: 4a (s) (nM)) | EC50 ([2]; read-out: 1a) | EC50 ([2]; read-out: 1a (nM)) | EC50 ([3]; read-out: 2a J6) | EC50 ([3]; read-out: 2a Jb (t) (nM)) | EC50 ([4]; read-out: 2b) | EC50 ([4]; read-out: 2b (s) (nM)) | EC50 ([4]; read-out: 2b (t) (nM)) | EC50 ([5]; read-out: 2a JFH) | EC50 ([5]; read-out: 2a JFH (nM)) | EC50 ([1]; read-out: 4a (t) (nM)) | EC50 ([3]; read-out: 2a J6 (s) (nM)) | EC50 [6]
COC(=O)N[C@H](C(=O)N1[C@@H](C)CC[C@H]1c1ncc(-c2ccc3c(c2)COc2cc4c(ccc5nc([C@@H]6CCCN6C(=O)[C@@H](NC(=O)OC)C6CCOCC6)[nH]c54)cc2-3)[nH]1)C(C)C [Compound 602] | < 1 nM | 0.013 nM | < 1 nM | 0.025 nM | < 1 nM | 0.053 nM | < 1 nM | 0.036 nM | 0.036 nM | < 1 nM | 0.01 nM | – | – | –
CC[C@@H](C)[C@H](NC(=O)OC)C(=O)N1C[C@@H](COC)C[C@H]1c1nc2ccc3cc4c(cc3c2[nH]1)OCc1cc(-c2cnc([C@@H]3CC[C@H](C)N3C(=O)[C@@H](NC(=O)OC)[C@H](C)CC)[nH]2)ccc1-4 [Compound 643] | – | – | < 1 nM | 0.015 nM | < 1 nM | 0.206 nM | < 1 nM | – | 0.607 nM | < 1 nM | 0.013 nM | – | – | –
COC[C@H]1C[C@@H](c2nc3ccc4cc5c(cc4c3[nH]2)OCc2cc(-c3ccc4nc([C@@H]6CCCN6C(=O)[C@@H](NC(=O)OC)C(C)C)[nH]c4c3)ccc2-5)N(C(=O)[C@H](NC(=O)OC)c2ccccc2)C1 [Example MS] | < 1 nM | 0.02 nM | < 1 nM | 0.008 nM | > 5 nM | – | > 5 nM | 9.56 nM | – | < 1 nM | 0.005 nM | 0.014 nM | 15.6 nM | –
COC(=O)N[C@H](C(=O)N1[C@@H](C)CC[C@H]1c1ncc(-c2ccc3c(c2)COc2cc4c(ccc5nc([C@@H]6CCCN6C(=O)[C@H](N)c6ccccc6)[nH]c54)cc2-3)[nH]1)C(C)C [Example NR, Methyl [(2S)-1-{(2S,5S)-2-[5-(2-{(2S)-1-[(2R)-2-amino-2-phenylacetyl]pyrrolidin-2-yl}-1,11-dihydroisochromeno[4′,3′:6,7]naphtho[1,2-d]imidazol-9-yl)-1H-imidazol-2-yl]-5-methylpyrrolidin-1-yl}-3-methyl-1-oxobutan-2-yl]carbamate] | < 1 nM | 0.007 nM | < 1 nM | 0.026 nM | < 1 nM | 0.118 nM | < 1 nM | 0.017 nM | 0.017 nM | < 1 nM | 0.006 nM | – | – | –
CC[C@H](C)[C@H](NC(=O)OC)C(=O)N1C[C@@H](COC)C[C@H]1c1ncc(-c2ccc3c(c2)COc2cc4c(ccc5nc([C@@H]6CC[C@H](C)N6C(=O)[C@@H](NC(=O)OC)C(C)C)[nH]c54)cc2-3)[nH]1 [Example OF, Methyl {(2S,3S)-1-[(2S,4S)-2-(5-{2-[(2S,5S)-1-{(2S)-2-[(methoxycarbonyl)amino]-3-methylbutanoyl}-5-methylpyrrolidin-2-yl]-1,11-dihydroisochromeno[4′,3′:6,7]naphtho[1,2-d]imidazol-9-yl}-1H-imidazol-2-yl)-4-(methoxymethyl)pyrrolidin-1-yl]-3-methyl-1-oxopentan-2-yl}carbamate] | – | – | < 1 nM | 0.01 nM | < 1 nM | 0.445 nM | < 1 nM | – | 0.196 nM | < 1 nM | 0.008 nM | – | – | –
CC[C@@H](C)[C@H](NC(=O)OC)C(=O)N1C[C@@H](COC)C[C@H]1c1ncc(-c2ccc3c(c2)COc2cc4c(ccc5nc([C@@H]6CC[C@H](C)N6C(=O)[C@@H](NC(=O)OC)C(C)C)[nH]c54)cc2-3)[nH]1 [Example OG, Methyl {(2S)-1-[(2S,5S)-2-(9-{2-[(2S,4S)-1-[N-(methoxycarbonyl)-L-alloisoleucyl]-4-(methoxymethyl)pyrrolidin-2-yl]-1H-imidazol-5-yl}-1,11-dihydroisochromeno[4′,3′:6,7]naphtho[1,2-d]imidazol-2-yl)-5-methylpyrrolidin-1-yl]-3-methyl-1-oxobutan-2-yl}carbamate] | – | – | < 1 nM | 0.009 nM | < 1 nM | 0.601 nM | < 1 nM | – | 0.437 nM | < 1 nM | 0.008 nM | – | – | –
COC[C@H]1C[C@@H](c2ncc(-c3ccc4c(c3)COc3cc5c(ccc6nc([C@@H]7CCCN7C(=O)[C@@H](NC(=O)OC)C(C)C)[nH]c65)cc3-4)[nH]2)N(C(=O)[C@H](N)c2ccccc2)C1 [Example OL, Methyl {(2S)-1-[(2S)-2-(9-{2-[(2S,4S)-[(2R)-2-amino-2-phenylacetyl]-4-(methoxymethyl)pyrrolidin-2-yl]-1H-imidazol-5-yl}-1,11-dihydroisochromeno[4′,3′:6,7]naphtho[1,2-d]imidazol-2-yl)pyrrolidin-1-yl]-3-methyl-1-oxobutan-2-yl}carbamate] | – | – | < 1 nM | 0.047 nM | < 1 nM | 0.07 nM | < 1 nM | 0.052 nM | 0.052 nM | < 1 nM | 0.012 nM | – | – | –
CC[C@H](C)[C@H](NC(=O)OC)C(=O)N1[C@@H](C)CC[C@H]1c1ncc(-c2ccc3c(c2)COc2cc4c(ccc5nc([C@@H]6C[C@H](COC)CN6C(=O)[C@@H](NC(=O)OC)C(C)C)[nH]c54)cc2-3)[nH]1 [Example OX, Methyl {(2S)-1-[(2S,4S)-2-(9-{2-[(2S,5S)-1-{(2S,3S)-2-[(methoxycarbonyl)amino]-3-methylpentanoyl}-5-methylpyrrolidin-2-yl]-1H-imidazol-5-yl}-1,11-dihydroisochromeno[4′,3′:6,7]naphtho[1,2-d]imidazol-2-yl)-4-(methoxymethyl)pyrrolidin-1-yl]-3-methyl-1-oxobutan-2-yl}carbamate] | – | – | < 1 nM | 0.007 nM | < 1 nM | 0.113 nM | < 1 nM | – | 0.107 nM | < 1 nM | 0.006 nM | – | – | –
COC(=O)N[C@H](C(=O)N1C[C@@H](COC(F)F)C[C@H]1c1nc2ccc3cc4c(cc3c2[nH]1)OCc1cc(-c2cnc([C@@H]3CC[C@H](C)N3C(=O)[C@@H](NC(=O)OC)C(C)C)[nH]2)ccc1-4)C(C)C [Example PS, methyl {(2S)-1-[(2S,5S)-2-(5-{2-[(2S,4S)-4-[(difluoromethoxy)methyl]-1-{(2S)-2-[(methoxycarbonyl)amino]-3-methylbutanoyl}pyrrolidin-2-yl]-1,11-dihydroisochromeno[4′,3′:6,7]naphtho[1,2-d]imidazol-9-yl}-1H-imidazol-2-yl)-5-methylpyrrolidin-1-yl]-3-methyl-1-oxobutan-2-yl}carbamate] | – | – | < 1 nM | 0.005 nM | < 1 nM | 0.077 nM | < 1 nM | – | 0.113 nM | < 1 nM | 0.004 nM | – | – | 44.4 nM
COC(=O)N[C@H](C(=O)N1C[C@@H](COC(F)F)C[C@H]1c1ncc(-c2ccc3c(c2)COc2cc4c(ccc5nc([C@@H]6CC[C@H](C)N6C(=O)[C@@H](NC(=O)OC)C(C)C)[nH]c54)cc2-3)[nH]1)C(C)C [Example PT, methyl {(2S)-1-[(2S,4S)-4-[(difluoromethoxy)methyl]-2-(5-{2-[(2S,5S)-1-{(2S)-2-[(methoxycarbonyl)amino]-3-methylbutanoyl}-5-methylpyrrolidin-2-yl]-1,11-dihydroisochromeno[4′,3′:6,7]naphtho[1,2-d]imidazol-9-yl}-1H-imidazol-2-yl)pyrrolidin-1-yl]-3-methyl-1-oxobutan-2-yl}carbamate] | – | – | < 1 nM | 0.007 nM | < 1 nM | 0.383 nM | < 1 nM | – | 0.182 nM | < 1 nM | 0.007 nM | – | – | –
COC[C@H]1C[C@@H](c2ncc(-c3ccc4c(c3)COc3cc5c(ccc6nc([C@@H]7C[C@H](COC(F)F)CN7C(=O)[C@@H](NC(=O)OC)C(C)C)[nH]c65)cc3-4)[nH]2)N(C(=O)[C@@H](NC(=O)OC)C(C)C)C1 [Example PU, methyl {(2S)-1-[(2S,4S)-2-(5-{2-[(2S,4S)-4-[(difluoromethoxy)methyl]-1-{(2S)-2-[(methoxycarbonyl)amino]-3-methylbutanoyl}pyrrolidin-2-yl]-1,11-dihydroisochromeno[4′,3′:6,7]naphtho[1,2-d]imidazol-9-yl}-1H-imidazol-2-yl)-4-(methoxymethyl)pyrrolidin-1-yl]-3-methyl-1-oxobutan-2-yl}carbamate] | – | – | < 1 nM | 0.012 nM | < 1 nM | 0.068 nM | < 1 nM | – | 0.442 nM | < 1 nM | 0.006 nM | – | – | –
